Source: patent US20240336638A1, “IMIDAZOLE COMPOUND, AND INTERMEDIATE AND APPLICATION THEREOF” (priority 2021, published 2024)
Read-outs that look alike come from different tables or passages of the source.

Columns and labels:
[1] = system: MCAO/R rats; assay: Therapeutic administration (i.v.) in middle cerebral artery occlusion/reperfusion (MCAO/R) rats; type: in vivo, rat; conditions: for Bleeding time / Brain water content (%) / Cerebral infarction rate (%) / Clotting time / Neurological function score: once a day for 3 days, mean ± SD, n = 8; for Neurological function score: modified Bederson score; for cerebral edema in rats: low and medium doses
Procedure: Male SD rats weighing 250 to 300 g were taken, and the rats in each group fasted for 12 hours before modeling, while water was not restricted. According to the method of Longa et al.^[1], a rat model of MCAO/R was established by occluding the blood flow of internal carotid artery using the thread embolization method. The rats were anesthetized with 3% chloral hydrate (300 mg/kg, 1 mL/100 g body weight) through intraperitoneal injection and fixed in the supine position on the operating table. A midline incision was made in the neck, and the right common carotid artery was isolated using forceps and threaded for later use. The external and internal carotid arteries were isolated from the bifurcation of the common carotid artery. A single thread was threaded through the internal carotid artery, and two threads were threaded through the external carotid artery. Both distal and proximal ends were ligated, and the middle part of the ligation site was cut using ophthalmic scissors. The proximal main trunk of the external carotid artery was isolated and reserved for later use. The prepared cotton thread was used to half-ligate the common carotid artery (tying a slipknot), and the thread prepared for the internal carotid artery was tightened with hemostatic forceps, temporarily occluding the blood flow of the internal carotid artery. A small incision at the proximal main trunk of the external carotid artery was made using ophthalmic scissors, and then, the fishing line was held with straight forceps, inserted from this incision, and slowly advanced through the isolated proximal main trunk of the external carotid artery towards the intracranial direction of the internal carotid artery. The advancement was stopped at a predetermined position, and then the thread of the internal carotid artery that was tightened with the hemostatic forceps was loosened. […] Another thread was threaded and tightened around the proximal main trunk of the external carotid artery and the fishing line that had already been inserted into the predetermined position. The half-ligated thread on the common carotid artery was then loosened, and the skin was subsequently sutured. After 2 hours of ischemia, a small section of the fishing line was pulled out. […] After rats in the blank control group were anesthetized, only the bifurcation of the internal and external carotid arteries was exposed without the occlusion of the MCA.
Successfully modeled rats (neurological function score of 3 after reperfusion) were taken and divided into 20 groups (8 rats for each) according to the random number table method. The groups were divided into a model control group, three dose groups (high, 12 mg/kg, 2.4 mg/mL; medium, 6 mg/kg, 1.2 mg/mL; low, 3 mg/kg, 0.6 mg/mL) for each of the six test compounds, and a positive drug Ozagrel group (6 mg/kg, 1.2 mg/mL), respectively. Both blank and model control groups were administered equal volumes of mixed solvents, and the rats in each group were administered by tail vein injection (i.v.) 2 hours after reperfusion, once a day for 3 consecutive days, with a volume of 0.5 mL/100 g body weight.
Ten minutes after the last administration, the neurological function of the animals was graded according to the modified Bederson scoring method. The standard is as follows[2]: • 0 point: no neurological symptoms; • 1 point: when the rat is suspended by lifting its tail, the forelimb on the surgical side of the rat was flexed and pressed against the chest wall; • 2 points: on a smooth plane, when the rat is pushed from the surgical side to the opposite side, the resistance is less than when it is moved to the same side; • 3 points: the animal moves around or in circles when moving freely; • 4 points: flaccid paralysis, no spontaneous movement of limbs.
After Bederson scoring, the rats were executed by cervical dislocation, and the whole brain was removed and weighed. After weighing, the whole brain was placed in a −20° C. refrigerator for 20 minutes. […]

[2] = Blood-brain barrier (BBB) study in SD rats after single IV and PO administration, brain; type: in vivo; conditions: for Cmax / Tmax / half-life / MRT last / MRT inf: Sprague-Dawley (SD); for Cmax / Tmax / half-life / MRT last / MRT inf / AUC(0−t) / AUC(0−∞): rat brain; for MRT last: read-out: MRT(0−t); for MRT inf: read-out: MRT(0−∞); for T1/2 and AUC(0-∞) in the brain tissue: compared to Ozagrel
Procedure: Effect Example 3: Pharmacokinetic and blood-brain barrier (BBB) studies of compounds after single intravenous (IV) and oral (PO) administration in SD rats
(§1) The experimental method of administration by gavage injection in rats: SD rats weighing 180 to 220 g were fasted for 12 hours prior to the experiment, with free access to water. After administration, food and water were withheld for 4 hours. After this 4-hour period, the rats were allowed free access to water, and food was provided after 8 hours. The drugs were administered at a set dose. N=3, blood samples were taken before administration, and 5 minutes, 0.25 hours, 0.5 hours, 0.75 hours, 1 hour, 2 hours, 4 hours, 8 hours, and 24 hours after administration, respectively, and placed into sodium heparin anticoagulant tubes. The tubes were centrifuged for 1 hour at 4° C. and at 8000 rpm for 5 minutes, and the plasma was then separated and stored in centrifuge tubes at −70° C. for analysis.
as §1, with “of intravenous” for “of”, “to” for “by gavage injection in”
The plasma concentration-time data were processed using the Phoenix® WinNonlin® 8.0 program to calculate pharmacokinetic parameters.
Among them, Cmax and Tmax are measured values, the elimination rate constant k of the tail section of the C-t curve is obtained from the linear regression of LnC-t, and the value of AUC0-4 is calculated by the trapezoidal area method, and the area under the curve from 0 to ∞ time is AUC=AUC0-4+Ct/k.

[3] = medium dose 6 mg/kg i.v. (Ozagrel group 6 mg/kg)

## O=C(O)[C@@H]1C[C@H]1c1ccc(Cn2cnc(F)c2)c(Cl)c1 [Compound 18, (1R,2R)-2-(3-Chloro-4-((4-fluoro-1H-imidazol-1-yl)methyl)phenyl)cyclopropane-1-carboxylic acid]
[1]; high dose 12 mg/kg i.v.
  Bleeding time: 330.25 ± 50.14 s
  Brain water content (%): 80.54 ± 1.62%
  Cerebral infarction rate (%): 17.78%
  Clotting time: 147.25 ± 13.30 s
  Neurological function score: 1.63 ± 0.52
[1]; low dose 3 mg/kg i.v.
  Bleeding time: 267.38 ± 50.19 s
  Brain water content (%): 80.64 ± 2.21%
  Cerebral infarction rate (%): 26.58 ± 4.57%
  Clotting time: 152.38 ± 28.67 s
  Neurological function score: 2.25 ± 0.46
[1]; [3]
  Bleeding time: 271.63 ± 40.55 s
  Brain water content (%): 80.95 ± 1.79%
  Cerebral infarction rate (%): 20.75%
  Clotting time: 158.19 ± 19.62 s
  Neurological function score: 1.88 ± 0.83
[2]; IV 1 mg/kg
  Cmax: 75.5 ng/g
  Tmax: 4.8 min
  half-life: 522 min
  MRT last: 431 min
  MRT inf: 688 min
  AUC(0−t): 633.23 ng·h/g
  AUC(0−∞): 741.29 ng·h/g
[2]; PO 6 mg/kg
  Cmax: 460 ng/g
  Tmax: 60 min
  half-life: 502 min
  MRT last: 470 min
  MRT inf: 702 min
  AUC(0−t): 6454.78 ng·h/g
  AUC(0−∞): 7477.48 ng·h/g
[2]; intravenously at 1 mg/kg
  T1/2 and AUC(0-∞) in the brain tissue: significantly increased
[2]; orally at 6 mg/kg
  T1/2 and AUC(0-∞) in the brain tissue: significantly increased

## O=C(O)/C=C/c1ccc(Cn2ccnc2)cc1 [Ozagrel, reference compound]
[1]; [3]
  Bleeding time: 300.00 ± 26.93 s
  Brain water content (%): 79.73 ± 2.02%
  Cerebral infarction rate (%): 21.70%
  Clotting time: 154.50 ± 16.91 s
  Neurological function score: 1.50 ± 0.93
[2]; IV 1 mg/kg
  Cmax: 27.6 ng/g
  Tmax: 4.8 min
  half-life: 6.6 min
  MRT last: 9 min
  MRT inf: 10.2 min
  AUC(0−t): 4.96 ng·h/g
  AUC(0−∞): 5.25 ng·h/g
[2]; PO 6 mg/kg
  Cmax: 42.6 ng/g
  Tmax: 15 min
  half-life: 24 min
  MRT last: 35.4 min
  MRT inf: 40.8 min
  AUC(0−t): 35.86 ng·h/g
  AUC(0−∞): 37.46 ng·h/g

## O=C(O)[C@@H]1C[C@H]1c1ccc(Cn2ccnc2)cc1 [Compound 19, (1R,2R)-2-(4-((1H-Imidazol-1-yl)methyl)phenyl)cyclopropane-1-carboxylic acid]
[1]; high dose 12 mg/kg i.v.
  Bleeding time: 304.75 ± 35.16 s
  Brain water content (%): 80.84 ± 1.04%
  Cerebral infarction rate (%): 13.48%
  Clotting time: 151.19 ± 21.35 s
  Neurological function score: 1.75 ± 0.89
[1]; high doses, comparison among test drugs
  reducing the infarct area (smallest mean infarct rate): more advantageous
[1]
  cerebral edema in rats: did not significantly improve
[1]; low dose 3 mg/kg i.v.
  Bleeding time: 272.38 ± 52.89 s
  Brain water content (%): 82.40 ± 1.50 %
  Cerebral infarction rate (%): 28.23 ± 2.76%
  Clotting time: 136.25 ± 36.28 s
  Neurological function score: 2.00 ± 0.53
[1]; [3]
  Bleeding time: 274.13 ± 47.46 s
  Brain water content (%): 81.92 ± 1.66 %
  Cerebral infarction rate (%): 22.38%
  Clotting time: 148.63 ± 28.41 s
  Neurological function score: 2.00 ± 0.76
[2]; IV 1 mg/kg
  Cmax: 36 ng/g
  Tmax: 4.8 min
  half-life: 22.8 min
  MRT last: 21 min
  MRT inf: 33.6 min
  AUC(0−t): 16.44 ng·h/g
  AUC(0−∞): 19.83 ng·h/g
[2]; PO 6 mg/kg
  Cmax: 168 ng/g
  Tmax: 15 min
  half-life: 46.2 min
  MRT last: 73.2 min
  MRT inf: 79.2 min
  AUC(0−t): 289.35 ng·h/g
  AUC(0−∞): 296.91 ng·h/g

## O=C(O)[C@@H]1C[C@H]1c1ccc(Cn2cnc(F)c2)cc1F [Compound 17, (1R,2R)-2-(2-Fluoro-4-((4-fluoro-1H-imidazol-1-yl)methyl)phenyl)cyclopropane-1-carboxylic acid]
[1]; high dose 12 mg/kg i.v.
  Bleeding time: 338.38 s
  Brain water content (%): 80.34 ± 1.65%
  Cerebral infarction rate (%): 17.37%
  Clotting time: 163.00 ± 29.03 s
  Neurological function score: 1.63 ± 0.74
[1]
  cerebral edema in rats: did not significantly improve
[1]; low dose 3 mg/kg i.v.
  Bleeding time: 290.75 ± 79.23 s
  Brain water content (%): 82.47 ± 3.03 %
  Cerebral infarction rate (%): 30.61 ± 5.72%
  Clotting time: 141.25 ± 28.04 s
  Neurological function score: 2.25 ± 0.71
[1]; [3]
  Bleeding time: 307.50 ± 64.66 s
  Brain water content (%): 81.96 ± 2.16 %
  Cerebral infarction rate (%): 22.75%
  Clotting time: 155.00 ± 29.81 s
  Neurological function score: 1.88 ± 0.83
[2]; IV 1 mg/kg
  Cmax: 84.1 ng/g
  Tmax: 4.8 min
  half-life: 223 min
  MRT last: 152 min
  MRT inf: 282 min
  AUC(0−t): 169.74 ng·h/g
  AUC(0−∞): 212.39 ng·h/g
[2]; PO 6 mg/kg
  Cmax: 323 ng/g
  Tmax: 120 min
  half-life: 169 min
  MRT last: 272 min
  MRT inf: 276 min
  AUC(0−t): 2329.55 ng·h/g
  AUC(0−∞): 2336.46 ng·h/g
[2]; intravenously at 1 mg/kg
  T1/2 and AUC(0-∞) in the brain tissue: significantly increased
[2]; orally at 6 mg/kg
  T1/2 and AUC(0-∞) in the brain tissue: significantly increased
